Laboratory results taken from patent US12501899B2, “Mite infestation treatment” (priority 2019, dated 2025).
Where a name gives a salt, the structure may show the parent alone. Read-outs that look alike come from different tables or passages of the source.

Tests used:
Varroa destructor = assay: Efficiency against Varroa mites in beehives outside the brood (gel application); type: in vivo
Text: 18 hives of bees were divided into 6 groups of 3 homogeneous hives as regards the strength of the colonies (number of bees) and the Varroa infestation.
The queen of each hive was caged 3 weeks before the application of the tested compounds. The application of the tested compounds was therefore carried out in a situation outside the brood, which allows the forced passage of the Varroa mites from their reproduction phase to their phoresy phase (they are therefore all present on the bees).
The tested compounds were applied in the form of a gel three weeks after the queen was caged. The activity of the compounds was studied for a period of 9 days.
Following these 9 days of treatment, a control treatment with oxalic acid was carried out (duration of treatment equal to 1 week).
Counts of Varroa mites falling on the floor were carried out at regular time intervals to quantify the number of dead Varroa mites.
The efficiency of the treatment was calculated by taking the sum of all the dead Varroa mites from D0 to D9 (tested compounds) and dividing it by the sum of all the dead Varroa mites from D0 to D16 (tested compounds+control treatment).
The following compounds were tested: • Dexmedetomidine at 55 mg/hive in hydrochloride form, • Dexmedetomidine at 110 mg/hive in hydrochloride form, • Dexmedetomidine at 220 mg/hive in hydrochloride form, • Detomidine at 38.4 mg/hive in hydrochloride form, • Detomidine at 110 mg/hive in hydrochloride form, • Detomidine at 220 mg/hive in hydrochloride form, Results

bees = conditions: 100 μg/mL syrup ad libitum
Description: Bees and Varroa mites were obtained and contacted as detailed in Example 1 (without the treatment step).
The bees on which the Varroa mites are attached (10 bees placed in contact with 10 Varroa mites) were fed with: • A pure syrup (Negative control), or • A syrup comprising dexmedetomidine hydrochloride at 100 μg/mL syrup.
The syrup was provided to the bees ad libitum in 1.5 mL eppendorf tubes.

Structure (SMILES) | Varroacid effect in the hive (in words) (Varroa destructor; 220 mg/hive, gel, 9 days) | total efficiency against Varroa mites (dead Varroa D0 to D9 / dead Varroa D0 to D16) (Varroa destructor; 220 mg/hive, gel, 9 days, outside the brood) [%] | dose dependence of efficiency against Varroa mites (in words) (Varroa destructor; 55, 110, 220 mg/hive) | % bee mortality (bees; 5 min) [%] | % bee mortality (bees; 1 h) [%] | % bee mortality (bees; 2 h) [%] | % bee mortality (bees; 3 h 30) [%] | % bee mortality (bees; 3 h 45) [%] | % bee mortality (bees; 24 h) [%]
Cc1cccc(Cc2cnc[nH]2)c1C [Detomidine hydrochloride, 4-[(2,3-dimethylphenyl)-methyl]-3H-imidazole] | allows to have a Varroacid effect |  |  |  |  |  |  |  | 
Cc1cccc([C@H](C)c2c[nH]cn2)c1C [Dexmedetomidine hydrochloride, (S)-4-[1-(2,3-dimethylphenyl)-ethyl]-1H-imidazole] |  | 94.5 | dose effect | 0 | 0 | 5 | 5 | 5 | 5
